B1: cyclotide Momordica cochinchinensis trypsin inhibitor-I (natural protein)
chain: cyclo(SGSDGGVCPKILQRCRRDSDCPGACICRGNGYCG)
modifications: disulfide (positions not given here)

How the values were obtained:
DU145 cells = test: MTT cell viability; type: cell-based, human; settings: DU145 (non-functional p53), 0–100 μM, 48 h
PC3 cells = test: MTT cell viability; type: cell-based, human; settings: PC3 (non-functional p53), 0–100 μM, 48 h
p53 level = type: cell-based, human; settings: LNCaP; 50 μM MCo-PMI, 8–48 h; western blot
HdmX level = test: Western blot of LNCaP cell extracts; type: cell-based, human; settings: 48 h, cyclotides 50 μM
caspase-3/7 = test: Caspase-3/7 assay in LNCaP cells; type: cell-based, human; settings: LNCaP cells treated 30 h
LNCaP cells = test: Propidium iodide flow cytometric cell cycle assay; type: cell-based, human; settings: LNCaP cells treated 24 h; propidium iodide flow cytometry
[1] = mice, MCo-PMI 40 mg/kg i.v. daily
in vitro = settings: human, human serum
HBL100 cells = test: MTT cell viability; settings: HBL100 normal breast epithelial cells, 48 h, triplicate

percent bound (serum proteins (human)) [%]	Molecule	Effect on cell viability (DU145 cells)	Effect on cell viability (PC3 cells)	Time of peak p53 level post-treatment (p53 level) [h]	Effect on intracellular HdmX level (HdmX level)	Caspase-3/7 activation (caspase-3/7)	Effect on cell cycle progression (LNCaP cells)	Association constant rate to human serum proteins [M⁻¹ s⁻¹]	Dissociation constant rate from human serum proteins [s⁻¹]	Body weight throughout treatment [1]	Organs and tissues at necropsy [1]	half-life (in vitro) [h]	EC50, cytotoxicity to non-cancerous cells (HBL100 cells) [µM]
–	CC[C@H](C)[C@@H]1NC(=O)[C@@H]2CSSC[C@@H]3NC(=O)[C@H](C(C)C)NC(=O)CNC(=O)CNC(=O)[C@H](C)NC(=O)[C@H](CO)NC(=O)[C@H](CC(C)C)NC(=O)[C@H](CC(C)C)NC(=O)[C@H](CC(N)=O)NC(=O)[C@H](Cc4c[nH]c5ccccc45)NC(=O)[C@H](Cc4ccc(O)cc4)NC(=O)[C@H](CCC(=O)O)NC(=O)[C@H](C)NC(=O)[C@H](Cc4ccccc4)NC(=O)[C@H](CO)NC(=O)[C@H]([C@@H](C)O)NC(=O)[C@@H]4CCCN4C(=O)[C@H](C)NC(=O)[C@H](CCCCN)NC(=O)[C@H](CO)NC(=O)[C@H](C)NC(=O)CNC(=O)[C@H](CO)NC(=O)CNC(=O)[C@H](CO)NC(=O)CNC(=O)[C@@H]4CSSC[C@H](NC(=O)[C@H](CC(=O)O)NC(=O)[C@H](CO)NC(=O)[C@H](CC(=O)O)NC(=O)[C@H](CCCNC(=N)N)NC(=O)[C@H](CCCNC(=N)N)NC(=O)[C@H](CSSC[C@H](NC1=O)C(=O)N[C@@H](CCCNC(=N)N)C(=O)NCC(=O)N[C@@H](CC(N)=O)C(=O)NCC(=O)N[C@@H](Cc1ccc(O)cc1)C(=O)N4)NC(=O)[C@H](CCCNC(=N)N)NC(=O)[C@H](CCC(N)=O)NC(=O)[C@H](CC(C)C)NC(=O)[C@H]([C@@H](C)CC)NC(=O)[C@H](CCCCN)NC(=O)[C@@H]1CCCN1C3=O)C(=O)N1CCC[C@H]1C(=O)NCC(=O)N[C@@H](C)C(=O)N2 [MCo-PMI]	unaffected	unaffected	36 to 48	downregulated	dose-dependent caspase-3 activation	depression of the S-phase fraction	2400	0.022	maintained healthy weight	no gross abnormalities	30 ± 4	–
–	COc1ccc(C2=N[C@@H](c3ccc(Cl)cc3)[C@@H](c3ccc(Cl)cc3)N2C(=O)N2CCNC(=O)C2)c(OC(C)C)c1 [Nutlin-3, reference compound]	unaffected	unaffected	–	–	–	depression of the S-phase fraction	–	–	–	–	–	33 ± 5
80	B1	–	–	–	–	–	–	–	–	–	–	–	–
